From US5859067A, “Use of natural products and related synthetic compounds for the treatment of cardiovascular disease” (priority 1993, dated 1999) come the findings set out here.

Broadly, the inhibition is the change of the read-out against control, counted positive when it falls. For orientation: IC50 means the concentration needed to halve the response being measured. Broadly, the LC50 is the concentration lethal to half of the exposed cells or organisms.

Where “and” joins values, the source holds several entries; their conditions need not be identical. Identical values can stand only once.

Series [1] addresses T1, human erythrocyte plasma membrane Ca^2+ -ATPase (Homo sapiens, UniProt P23634).
T1 construct: Calmodulin-depleted erythrocyte membranes were prepared by continuous filtration through a hollow fibre; tissue New South Wales Red Cross Transfusion Service, Sydney; host or cells: human packed red blood cells (calmodulin-depleted erythrocyte membranes)
In words: Ca^2+ -ATPase assay (erythrocyte membranes; Table 1). It is filed as biochemical.

For series [2], the system named is purified erythrocyte Ca^2+ -ATPase. Briefly: Inhibition of purified erythrocyte Ca^2+ -ATPase. It is filed as biochemical. To be noted: purified enzyme.
For series [3], the system named is ^45 Ca^2+ efflux from rat thoracic aorta smooth muscle cells. In words: ^45 Ca^2+ efflux from cultured vascular smooth muscle cells. It counts as cell-based. The text has this: ^45 Ca efflux from cultured vascular smooth muscle cells consists of two major mechanisms; one is dependent on extracellular sodium, mediated by the Na^+ -Ca^2+ exchanger (Na^+ - dependent Ca^2+ efflux), and the other is independent of extracellular sodium but is mediated by the Ca^2+ pump (Na^+ - independent Ca^2+ efflux). The effect of striatol on the efflux of calcium (^45 Ca^2+) from rat thoracic aorta smooth muscle cells in culture was studied. ^45 Ca^2+ efflux is a measure of plasma membrane Ca^2+ -ATPase (plus Na^+ : Ca^2+ exchange) in intact (whole) cells.

Series [4] has as its system brine shrimp (Artemia salina Leach). In words: Brine shrimp toxicity bioassay. It is filed as in vivo. To be noted: 24 hours.

T1 sequence (P23634 1-1205 isoform P23634-6): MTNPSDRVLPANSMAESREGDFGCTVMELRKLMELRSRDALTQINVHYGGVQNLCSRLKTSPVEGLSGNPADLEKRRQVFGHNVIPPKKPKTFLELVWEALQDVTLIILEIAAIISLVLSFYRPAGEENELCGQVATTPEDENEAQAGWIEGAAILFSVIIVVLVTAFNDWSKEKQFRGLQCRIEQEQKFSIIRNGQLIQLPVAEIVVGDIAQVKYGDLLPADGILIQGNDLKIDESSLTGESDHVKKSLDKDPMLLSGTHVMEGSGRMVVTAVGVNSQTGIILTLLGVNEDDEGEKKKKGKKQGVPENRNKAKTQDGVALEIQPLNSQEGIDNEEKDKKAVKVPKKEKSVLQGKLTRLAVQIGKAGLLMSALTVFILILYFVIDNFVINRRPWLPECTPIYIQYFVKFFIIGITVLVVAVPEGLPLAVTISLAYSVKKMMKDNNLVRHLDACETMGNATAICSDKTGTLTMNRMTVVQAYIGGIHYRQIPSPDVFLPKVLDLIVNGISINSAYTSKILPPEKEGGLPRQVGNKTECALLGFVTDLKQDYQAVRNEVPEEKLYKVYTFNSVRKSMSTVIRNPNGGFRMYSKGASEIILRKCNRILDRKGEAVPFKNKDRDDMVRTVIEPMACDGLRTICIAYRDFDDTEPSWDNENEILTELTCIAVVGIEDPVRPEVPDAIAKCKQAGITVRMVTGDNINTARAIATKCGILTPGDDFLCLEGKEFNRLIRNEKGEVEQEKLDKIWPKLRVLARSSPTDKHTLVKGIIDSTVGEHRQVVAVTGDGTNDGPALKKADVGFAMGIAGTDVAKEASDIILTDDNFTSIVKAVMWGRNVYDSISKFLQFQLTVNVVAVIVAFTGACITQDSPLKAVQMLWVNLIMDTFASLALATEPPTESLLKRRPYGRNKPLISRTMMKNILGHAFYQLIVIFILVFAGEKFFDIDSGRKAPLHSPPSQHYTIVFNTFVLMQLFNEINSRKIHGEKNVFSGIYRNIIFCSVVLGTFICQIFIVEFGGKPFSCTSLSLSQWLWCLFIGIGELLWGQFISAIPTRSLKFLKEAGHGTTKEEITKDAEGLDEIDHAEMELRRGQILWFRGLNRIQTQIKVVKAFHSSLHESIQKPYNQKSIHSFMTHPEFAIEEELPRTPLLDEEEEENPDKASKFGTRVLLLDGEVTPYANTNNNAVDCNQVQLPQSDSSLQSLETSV
T1 sequence (P35613 140-385 partner limits assumed): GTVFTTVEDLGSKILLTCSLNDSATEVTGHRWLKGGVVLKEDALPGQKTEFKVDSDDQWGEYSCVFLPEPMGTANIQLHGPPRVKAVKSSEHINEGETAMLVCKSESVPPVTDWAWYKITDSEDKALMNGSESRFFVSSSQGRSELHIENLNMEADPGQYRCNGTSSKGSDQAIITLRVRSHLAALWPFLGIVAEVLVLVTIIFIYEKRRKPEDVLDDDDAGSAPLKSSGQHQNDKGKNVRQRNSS

As to `Cc1c(O)cc(CCCCCCCCCCCCCCc2cc(O)c(C)c(O)c2)cc1O` [striatol, 1,14-bis(3,5-dihydroxy-4-methylphenyl)tetradecane], in series [1] (at 100 μM, read-out: INHIBITION OF Ca^2+ -ATPase PERCENT (%)), the inhibition at 100 µM turned out to be 98%. Further, the half-maximal inhibitory concentration (IC50) in series [1] (read-out: INHIBITION OF Ca^2+ -ATPase IC50) came to 16 µM. Moreover, the “inhibitory activity with purified erythrocyte Ca^2+ -ATPase” value in series [2] is “confirmed”. In addition, the “inhibition of ^45 Ca^2+ efflux” value in series [3] (20 μM, 5 min) is recorded as “partial inhibition”; in series [3] (20 μM, 10 min), “partial inhibition”; in series [3] (50 μM, 30 min) it was “complete inhibition”. For the same molecule, in series [4], the “toxicity to brine shrimp (in words)” value is recorded as “relatively low toxicity”. In series [4] (Artemia salina, read-out: LC50 brine shrimp), the LC50 is 11 µM and 4.9 µg/mL.
